According to patent US20240140986A1, “SYNTHETIC URSOLIC ACID DERIVATIVES AND METHODS OF USE THEREOF” (REATA PHARMACEUTICALS, INC., priority 2021, published 2024):
Where two headings read alike, the source gives them in different places.

Experiments:
[1] = tested on: IFNγ-induced NO production in RAW 264.7 cells; experiment: Nitric Oxide Suppression Assay (IFNγ-induced NO, Griess nitrite readout); format: cell-based, mouse; details: for IC50: Mus musculus; for Avg NO IC50 Relative to RTA402 (fold): Table 2, ratio to RTA402
Procedure, shortened: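 Nitrite, a surrogate for NO, was measured by Griess reagent (525 nm) and quantified from standards by linear regression, expressed as percent of DMSO plus IFNγ control to give IC50. RAW 264.7 cells had 2 h compound pretreatment, then 24 h with 20 ng/mL IFNγ; WST-1 checked viability.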

[2] = tested on: Nrf2 / ARE-dependent luciferase in AREc32 reporter cell line; experiment: AREc32 luciferase reporter activation (Nrf2 induction); format: cell-based, human; details: for EC (2-fold): Homo sapiens, Arec32; for Relative Avg AREc32 EC2X Relative to RTA402 (fold): ratio to RTA402
Procedure, shortened: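 EC2X is the concentration raising luminescence 2-fold above DMSO-treated cells, from a nonlinear-regression dose–response fit. Compounds (0.03–1000 nM) were applied for nineteen hours, starting one day after seeding 20,000 reporter cells per well. Luciferase was read with One-Glo reagent.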

[3] = RAW264.7, Table 2, RAW 264.7 cells, 2 h pretreatment, 20 ng/mL interferon gamma 24 h, read-out: Avg NO IC50 (nM) (Mean ± SD)
[4] = Table 2, concentration increasing luminescence 2-fold above vehicle, 19 h treatment, read-out: Avg AREc32 EC2X (nM) (Mean ± SD)
[5] = RAW264.7, Table 3, ursolic acid derivatives, read-out: Avg NO IC50 (nM) (Mean ± SD)
[6] = Table 3, ursolic acid derivatives, read-out: Avg ARE EC-2X (nM) (Mean ± SD)
[7] = RAW264.7, Table 3, oleanolic acid derivative analogs, read-out: Avg NO IC50
[8] = Table 3, oleanolic acid derivative analogs, read-out: Avg ARE EC-2X

Row | Structure (SMILES) | IC50 [1, 3] [nM] | Avg NO IC50 Relative to RTA402 (fold) [1] [fold] | IC50 [1, 5] [nM] | IC50 [1, 7] [nM] | EC (2-fold) [2, 4] [nM] | Relative Avg AREc32 EC2X Relative to RTA402 (fold) ([2]; Table 2) | EC (2-fold) [2, 6] [nM] | EC (2-fold) [2, 8] [nM]
1 | C[C@@H]1[C@H]2[C@H]3C(=O)C=C4[C@@]5(C)C=C(C#N)C(=O)C(C)(C)[C@@H]5CC[C@@]4(C)[C@]3(C)CC[C@@]2(N2CCOC2=O)CC[C@H]1C [Compound T59] | 16 ± 5 | 5.03 ± 1.61 | 16 ± 5 | – | 15.4 ± 1.2 | 1.23 ± 0.26 | 15.4 ± 1.2 | –
2 | C[C@@H]1[C@H]2[C@H]3C(=O)C=C4[C@@]5(C)C=C(C#N)C(=O)C(C)(C)[C@@H]5CC[C@@]4(C)[C@]3(C)CC[C@@]2(/C=N/O)CC[C@H]1C [Compound T84] | 7.91 ± 2.32 | 4.07 ± 1.76 | – | – | 9.29 ± 1.52 | 1.14 ± 0.22 | – | –
3 | C[C@@H]1[C@H]2[C@H]3C(=O)C=C4[C@@]5(C)C=C(C#N)C(=O)C(C)(C)[C@@H]5CC[C@@]4(C)[C@]3(C)CC[C@@]2(N2CCCC2=O)CC[C@H]1C [Compound T58] | 26 ± 8.8 | 8.67 ± 3.30 | 26 ± 8.8 | – | 33.6 ± 3.3 | 2.64 ± 0.47 | 33.6 ± 3.3 | –
4 | CCNC(=O)CC[C@]12CC[C@@H](C)[C@H](C)[C@H]1[C@H]1C(=O)C=C3[C@@]4(C)C=C(C#N)C(=O)C(C)(C)[C@@H]4CC[C@@]3(C)[C@]1(C)CC2 [Compound T79] | 4.5 ± 1.84 | 1.25 ± 0.13 | – | – | 4.32 ± 0.5 | 0.361 ± 0.028 | – | –
5 | CCc1noc([C@]23CCC(C)(C)C[C@H]2[C@H]2C(=O)C=C4[C@@]5(C)C=C(C#N)C(=O)C(C)(C)[C@@H]5CC[C@@]4(C)[C@]2(C)CC3)n1 [CC4, reference compound] | – | – | – | 5.3 | – | – | – | 21.4
6 | C[C@@H]1[C@H]2[C@H]3C(=O)C=C4[C@@]5(C)C=C(C#N)C(=O)C(C)(C)[C@@H]5CC[C@@]4(C)[C@]3(C)CC[C@@]2(CNC(=O)C2CC2)CC[C@H]1C [Compound T19] | 2.33 ± 1.47 | 0.74 ± 0.14 | 2.33 ± 1.47 | – | 2.27 ± 0.52 | 0.224 ± 0.072 | 2.27 ± 0.52 | –
7 | C[C@@H]1[C@H]2[C@H]3C(=O)C=C4[C@@]5(C)C=C(C#N)C(=O)C(C)(C)[C@@H]5CC[C@@]4(C)[C@]3(C)CC[C@@]2(Cn2cccn2)CC[C@H]1C [Compound T46] | 32.6 ± 2.2 | 8.4 ± 2.7 | – | – | 24.1 ± 6.7 | 2.06 ± 0.26 | – | –
8 | CC1(C)CC[C@]2(CNC(=O)C3CC3)CC[C@]3(C)[C@H](C(=O)C=C4[C@@]5(C)C=C(C#N)C(=O)C(C)(C)[C@@H]5CC[C@]43C)[C@@H]2C1 [CC19, reference compound] | – | – | – | 0.5 | – | – | – | 3.22
9 | C[C@@H]1[C@H]2[C@H]3C(=O)C=C4[C@@]5(C)C=C(C#N)C(=O)C(C)(C)[C@@H]5CC[C@@]4(C)[C@]3(C)CC[C@@]2(CNS(C)(=O)=O)CC[C@H]1C [Compound T31] | 7.7 ± 3.1 | 2.25 ± 0.49 | – | – | 4.36 ± 0.81 | 0.373 ± 0.071 | – | –
10 | C[C@@H]1[C@H]2[C@H]3C(=O)C=C4[C@@]5(C)C=C(C#N)C(=O)C(C)(C)[C@@H]5CC[C@@]4(C)[C@]3(C)CC[C@@]2(CN2CCN(C)C2=O)CC[C@H]1C [Compound T44] | 5.53 ± 1.8 | 2.03 ± 0.67 | 5.5 ± 1.8 | – | 5.73 ± 1.79 | 0.53 ± 0.13 | 5.73 ± 1.79 | –
11 | C[C@@H]1[C@H]2[C@H]3C(=O)C=C4[C@@]5(C)C=C(C#N)C(=O)C(C)(C)[C@@H]5CC[C@@]4(C)[C@]3(C)CC[C@@]2(CCC(=O)NC2CC2)CC[C@H]1C [Compound T81] | 2.31 ± 0.55 | 0.92 ± 0.27 | – | – | 3.1 ± 1.5 | 0.238 ± 0.072 | – | –
12 | C[C@@H]1[C@H]2[C@H]3C(=O)C=C4[C@@]5(C)C=C(C#N)C(=O)C(C)(C)[C@@H]5CC[C@@]4(C)[C@]3(C)CC[C@@]2(N2CCC2=O)CC[C@H]1C [Compound T74] | 21 ± 7.6 | 5.91 ± 0.94 | 21 ± 7.6 | – | 20 ± 2 | 1.67 ± 0.13 | 20 ± 2 | –
13 | C[C@@H]1[C@H]2[C@H]3C(=O)C=C4[C@@]5(C)C=C(C#N)C(=O)C(C)(C)[C@@H]5CC[C@@]4(C)[C@]3(C)CC[C@@]2(Cn2ccnc2)CC[C@H]1C [Compound T51] | 17.4 ± 2.5 | 5.79 ± 0.73 | 17.4 ± 2.5 | – | 15.3 ± 3.6 | 1.2 ± 0.1 | 15.3 ± 3.6 | –

Now from value to molecule, other results behind:

Row | IC50 [1, 3] [nM] | Avg NO IC50 Relative to RTA402 (fold) [1] [fold] | IC50 [1, 5] [nM] | IC50 [1, 7] [nM] | Structure (SMILES) | EC (2-fold) [2, 4] [nM] | Relative Avg AREc32 EC2X Relative to RTA402 (fold) ([2]; Table 2) | EC (2-fold) [2, 6] [nM] | EC (2-fold) [2, 8] [nM]
14 | 3.64 ± 1.69 | 1.15 ± 0.32 | – | – | C[C@@H]1[C@H]2[C@H]3C(=O)C=C4[C@@]5(C)C=C(C#N)C(=O)C(C)(C)[C@@H]5CC[C@@]4(C)[C@]3(C)CC[C@@]2(CNC(=O)C(F)F)CC[C@H]1C [Compound T28] | 4.33 ± 1.62 | 0.331 ± 0.101 | – | –
15 | 60.6 ± 0.9 | 28.1 ± 9.62 | – | – | C[C@@H]1[C@H]2[C@H]3C(=O)C=C4[C@@]5(C)C6O[C@@]6(C#N)C(=O)C(C)(C)[C@@H]5CC[C@@]4(C)[C@]3(C)CC[C@@]2(NC(=O)C(C)(F)F)CC[C@H]1C (stereo partly drawn) [Compound T100] | 29.4 ± 3.69 | 2.87 ± 0.59 | – | –
16 | 3.33 ± 0.68 | 1.59 ± 0.20 | 3.33 ± 0.68 | – | C[C@@H]1[C@H]2[C@H]3C(=O)C=C4[C@@]5(C)C=C(C#N)C(=O)C(C)(C)[C@@H]5CC[C@@]4(C)[C@]3(C)CC[C@@]2(c2nc(CN(C)C)no2)CC[C@H]1C [Compound T8] | 3.72 ± 0.97 | 0.321 ± 0.059 | 3.72 ± 0.97 | –
17 | 15.2 ± 4.3 | 4.45 ± 1.25 | – | – | C[C@@H]1[C@H]2[C@H]3C(=O)C=C4[C@@]5(C)C6O[C@@]6(C#N)C(=O)C(C)(C)[C@@H]5CC[C@@]4(C)[C@]3(C)CC[C@@]2(CNC(=O)C2CC2)CC[C@H]1C (stereo partly drawn) [Compound T98] | 6.85 ± 0.51 | 0.574 ± 0.052 | – | –
18 | 3.23 ± 0.65 | 1.46 ± 0.46 | – | – | C[C@@H]1[C@H]2[C@H]3C(=O)C=C4[C@@]5(C)C=C(C#N)C(=O)C(C)(C)[C@@H]5CC[C@@]4(C)[C@]3(C)CC[C@@]2(CN2C(=O)CCC2=O)CC[C@H]1C [Compound T75] | 2.47 ± 0.64 | 0.242 ± 0.070 | – | –
19 | 5.08 ± 1.51 | 1.25 ± 0.47 | 5.08 ± 1.51 | – | CNC(=O)N(C)C[C@]12CC[C@@H](C)[C@H](C)[C@H]1[C@H]1C(=O)C=C3[C@@]4(C)C=C(C#N)C(=O)C(C)(C)[C@@H]4CC[C@@]3(C)[C@]1(C)CC2 [Compound T36] | 5.21 ± 1.17 | 0.441 ± 0.075 | 5.21 ± 1.17 | –
20 | 5.57 ± 2 | 1.66 ± 0.32 | 5.57 ± 2 | – | CC(=O)N(C)C[C@]12CC[C@@H](C)[C@H](C)[C@H]1[C@H]1C(=O)C=C3[C@@]4(C)C=C(C#N)C(=O)C(C)(C)[C@@H]4CC[C@@]3(C)[C@]1(C)CC2 [Compound T35] | 5.05 ± 1.1 | 0.442 ± 0.136 | 5.05 ± 1.1 | –
21 | 15 ± 3.7 | 7.63 ± 2.99 | 15 ± 3.7 | – | C[C@@H]1[C@H]2[C@H]3C(=O)C=C4[C@@]5(C)C=C(C#N)C(=O)C(C)(C)[C@@H]5CC[C@@]4(C)[C@]3(C)CC[C@@]2(N)CC[C@H]1C [Compound T16] | 20.5 ± 6 | 1.61 ± 0.084 | 20.5 ± 6 | –
22 | 3.07 ± 1.43 | 0.80 ± 0.13 | 3.07 ± 1.43 | – | CCC(=O)NC[C@]12CC[C@@H](C)[C@H](C)[C@H]1[C@H]1C(=O)C=C3[C@@]4(C)C=C(C#N)C(=O)C(C)(C)[C@@H]4CC[C@@]3(C)[C@]1(C)CC2 [Compound T23] | 1.89 ± 0.91 | 0.166 ± 0.071 | 1.89 ± 0.91 | –
23 | – | – | – | 1.2 | CC1(C)CC[C@]2(Cn3cncn3)CC[C@]3(C)[C@H](C(=O)C=C4[C@@]5(C)C=C(C#N)C(=O)C(C)(C)[C@@H]5CC[C@]43C)[C@@H]2C1 [CC47, reference compound] | – | – | – | 10.7
